Reference: PubChem BioAssay AID2252 (Southern Research Specialized Biocontainment Screening …, 2010)
pEC50: −log10 of the molar value.

System: THP-1 viability, CellTiter-Glo luminescence, 72 h
Assay: PubChem AID 2252

Row | Compound | pEC50
1 | c1ccc(CN2CCN(c3ncnc4c3[nH]c3ccccc34)CC2)cc1 | 4.70
2 | CCCCC(=O)NNC(=S)NC(=O)CCC | 4.34
3 | CN(CC(=O)Nc1ccc(F)c(F)c1F)c1cnccn1 | 4.71
4 | Oc1ccccc1Nc1nc(NCc2ccco2)c2ccccc2n1 | 4.90
5 | O=C(Nc1nc(-c2ccccn2)cs1)c1ccc(Br)s1 | 5.92
6 | C/C(=N\NC(=O)c1ccccc1O)c1cccs1 | 4.64
7 | CCCCCCOC(=O)C[N+](C)(C)CCOC1CC2CCC1(C)C2(C)C (stereo not given) | 5.68
8 | CCN(CCC(=O)Nc1ccc(Br)c(C)c1)Cc1ccccc1 | 4.86
9 | COc1ccc(C2NCCc3c2[nH]c2ccccc32)cc1COc1ccc(F)cc1 (stereo not given) | 5.16
10 | COC(=O)C1=C(C(=O)OC)SC(=C2C(=S)C(C)(C)N(C(=O)C3CC3)c3ccccc32)S1 | 4.51
11 | CCCCOc1ccc(CN=C(N)N)cc1Cl | 5.00
12 | O=C(CCN1CCN(C(=O)c2ccccc2)CC1)c1ccc(Br)cc1 | 4.39
13 | Cn1c(CCN2CCN(c3ccccn3)CC2)nc2cc(NC(=O)COc3ccccc3)ccc21 | 4.65
14 | CC(C)[C@H](NC(=O)c1ccccc1Cl)C(=O)Nc1nc(-c2ccccn2)cs1 | 5.21
15 | Nn1cnnc1N/N=C\c1ccc(-c2ccccc2[N+](=O)[O-])o1 | 4.38
16 | Cc1ccc(C(=O)NNC(=S)NC(=O)COc2ccccc2)cc1 | 4.82
17 | C/C(=N/Nc1ccnc2cc(Cl)ccc12)c1ccc(N)cc1 | 5.08
18 | O=C(CCN1CCC(c2ccccc2)C1)c1ccc2c(c1)OCCO2 (stereo not given) | 4.67
19 | CCc1nc(SCC(=O)Nc2ccc(N(C)C)cc2)c2ccccc2n1 | 4.45
20 | CCCCOc1ccc(CSC(=N)N)cc1Cl | 4.96
21 | Cc1ccc(Nc2nc(N)c3ccccc3n2)cc1Cl | 4.86
22 | Cc1ccc(NC(=O)CS(=O)CC(=O)Nc2ccccc2-c2ccc(C)o2)cc1 (stereo not given) | 4.66
23 | CCN1CCN(CCNC(=O)c2ccc3c(c2)N(Cc2ccc(F)cc2)C(=O)/C(=C/c2ccccc2)S3)CC1 | 5.03
24 | CCOc1ccc(N2C(=O)CN(O)C=C3N=c4ccccc4=C32)cc1 | 4.41
25 | CN1CC(C(=O)c2ccc(Cl)cc2)C(c2ccc(Cl)cc2Cl)C1 (stereo not given) | 4.56
26 | OC(CN1CCCCC1)Cn1c2ccccc2c2cc(Br)ccc21 (stereo not given) | 4.76
27 | CN(C)CC/C=C1/c2cc(F)ccc2Sc2ccc(Cl)cc21 | 4.69

Row | Compound | pEC50
28 | O=C(CCN1CCN(c2ccccc2F)CC1)c1ccc(Br)cc1 | 4.77
29 | O=[N+]([O-])c1cc(Cl)cc(/C=N/NC(=S)Nc2ccc(S(=O)(=O)N3CCOCC3)cc2)c1O | 4.57
30 | CC(C)(C)c1nc(SCC(=O)NCc2ccco2)c2ccccc2n1 | 4.52
31 | CN1CCN(C2Cc3ccc(Cl)cc3Sc3ccc(F)cc32)CC1 (stereo not given) | 4.94
32 | CC(Nc1nc(N2CCCCC2)nc2ccccc12)c1ccccc1 (stereo not given) | 5.15
33 | CN1CCN(C(c2ccc(C(F)(F)F)cc2)c2ccc3cccnc3c2O)CC1 (stereo not given) | 5.87
34 | CCCCCCCCCCOC(=O)Cn1c(COc2cccc(OC)c2)[n+](C)c2ccccc21 | 5.62
35 | Cc1cc(OCCCCCN2CCCC2)ccc1Cl | 4.31
36 | COc1ccc(C(=O)N/N=C/c2sc3ccccc3c2O)cc1 | 5.47
37 | CC1CCN(CCCNC(=O)c2ccc3c(=O)n(Cc4ccc(Cl)cc4)c(=S)[nH]c3c2)CC1 | 4.78
38 | COc1ccc2[nH]c3c(C)c4ccncc4c(C)c3c2c1 | 5.84
39 | COC(=O)C(C)NC(=S)N1CCN(c2c(F)cc3c(=O)c(C(=O)O)cn(C4CC4)c3c2OC)CC1C (stereo not given) | 4.43
40 | Fc1cccc(Nc2c3c(nc4ccccc24)CCC3)c1 | 4.58
41 | c1cc2c(cc1Oc1nc(N3CCOCC3)nc(N3CCOCC3)n1)OCO2 | > 7.00
42 | O=C(CSc1ccccn1)N/N=C/c1cc([N+](=O)[O-])ccc1O | 4.67
43 | COc1ccc2sc(N(CCCN(C)C)C(=O)c3ccc(S(=O)(=O)N4CCc5ccccc5C4)cc3)nc2c1 | 5.35
44 | C1=C(CCNc2ncnc3c2[nH]c2ccccc23)CCCC1 | 5.26
45 | O=C(Nc1ccc(Cl)cc1)N1CCCN(Cc2ccccc2F)C1 | 4.34
46 | Nc1cc2c3c(cccc3c1)C(=O)N(CCN1CCCC1)C2=O | 4.95
47 | O=C(N/N=C/c1ccc([N+](=O)[O-])o1)C1CCCC1 | > 7.00
48 | CCn1cc(C(=O)NCCc2ccccc2)c(=O)c2cc(F)c(N3CCN(C)CC3)cc21 | 4.45
49 | CC1CCC(C(C)C)C(OC(=O)C[n+]2cc(-c3ccc(Cl)cc3)n3c2CCC3)C1 (stereo not given) | 4.78
50 | CCN(CC)c1cc(C)c2cc(NC(=O)c3ccccc3F)ccc2n1 | 5.05
51 | Oc1ccc(C=Nc2cccc3ncccc23)c(O)c1 | 5.48
52 | N#C/C(N=Nc1ccccc1O)=N\Nc1ccccc1O | 5.35
53 | Cc1cccc(/C(N)=N/OC(=O)N2CCOCC2)c1 | 5.10
54 | CC(C)C1N=C(c2ccc3c(c2)OCO3)CC(c2ccccc2O)N1 (stereo not given) | 4.36

Row | Compound | pEC50
55 | COc1ccc(CNCC(O)COc2ccc(C(C)(C)c3ccccc3)cc2)cc1 (stereo not given) | 4.83
56 | Cc1ccc(NC(=O)COc2ccccc2CNC(C)(C)CC(C)(C)C)cc1 | 5.03
57 | Cc1cc2oc(=O)cc(CN3CCN(C/C=C/c4ccccc4)CC3)c2cc1O | 4.73
58 | CC[n+]1c(/C=C/C=C/c2ccc(N(C)C)cc2)sc2ccccc21 | 5.84
59 | C=C(C)COc1ccc2c(C)c(CCC(=O)NC3CC3)c(=O)oc2c1 | > 7.00
60 | O=C(Cc1cccs1)N/N=C\c1ccc([N+](=O)[O-])s1 | 4.90
61 | N#CC1=C2N=C(N)c3ccccc3N2C2=C(C(=O)CCC2)C1c1cccc(Cl)c1 (stereo not given) | 4.57
62 | CN1CCN(c2nc(Nc3ccc(F)cc3)nc(Nc3ccc(F)cc3)n2)CC1 | 4.92
63 | C#CCOCCOCCOCCNc1nc(N2CCN(C(=O)CCCCCCCCCCNC(=O)[C@H](CCCCN)n3cc(C)nn3)CC2)nc(N2CCN(C(=O)CCCCCCCCCCNC(=O)[C@@H]([C@H](C)CC)n3cc(CCCCCN)nn3)CC2)n1 | 4.90
64 | CCN1CCCC1CNC(=O)C1CCN(Cc2nc(-c3cccc(Br)c3)oc2C)CC1 (stereo not given) | 4.91
65 | Oc1ccc(/C=N/N=C(c2ccccc2)c2ccccc2)c(O)c1O | 5.13
66 | C#CCOCCOCCOCCNc1nc(N2CCN(C(=O)CCCCCCCCCCNC(=O)[C@H](CO)n3cc(CCCSC)nn3)CC2)nc(N2CCN(C(=O)CCCCCCCCCCNC(=O)[C@H](CCCN=C(N)N)n3cc(C[C@@H](C)CC)nn3)CC2)n1 | 5.05
67 | Clc1cc(Br)ccc1OCCCNCc1ccccc1 | 4.83
68 | NC(N)=N/N=C/c1ccc(OCc2ccc(Cl)cc2)cc1 | 5.25
69 | CCOc1cc(Br)cc(/C=N/NC(=O)c2cccnc2)c1O | 5.12
70 | CN1CCN(C2Cc3cc(Cl)ccc3Sc3cc(F)ccc32)CC1 (stereo not given) | 5.09
71 | CCOc1ccc(Nc2nc(NCC3CCCO3)c3ccccc3n2)cc1 (stereo not given) | 5.64
72 | CN(C)CCCNC(=O)c1ccc(-c2nc(-c3ccc(Cl)cc3)cs2)cc1 | 5.40
73 | CN1CCN(C2Cc3cc(F)ccc3Sc3ccc(Cl)cc32)CC1 (stereo not given) | 4.83
74 | Cc1cccn2c(=O)c(C=O)c(Cl)nc12 | 4.57
75 | O=C(O)CC/C(=C\c1ccccc1[N+](=O)[O-])c1nc2ccccc2s1 | > 7.00
76 | CC12CN3CC(C)(CN(C1)C3c1ccc(Br)cc1O)C2 (stereo not given) | > 7.00
77 | Cc1ccccc1-n1ncc2c([N+](=O)[O-])cc([N+](=O)[O-])cc21 | 4.57
78 | N=c1n(CCN2CCCCC2)c2ccccc2n1CC(O)c1ccc(Cl)c(Cl)c1 (stereo not given) | 5.34
79 | Clc1ccc(C[n+]2cc(-c3ccc(Cl)cc3)n3c2CCC3)cc1 | 4.64
80 | OCCN1CCN(C2Cc3cc(Cl)ccc3Sc3ccc(Cl)cc32)CC1 (stereo not given) (tested in a mixture with another compound) | 5.11
